# Source: US20240115744A1, “FIBRIN-BINDING COMPOUNDS FOR IMAGING AND TREATMENT” (Collagen Medical, LLC, priority 2019, published 2024)
# “Also recorded” adds a separate entry of the source. *1 amine or outer side, *2 acyl side, *3 side chain or, on linkers, in order; H or OH if unused. Where a SMILES comes first, the peptide text is derived from it. Bridges are numbered along the chain shown (N, C = ends). [ ]: non-standard residue; d: D form. The star is where a group is joined. NODAGA = O=C(O)CN1CCN(CC(=O)O)CCN(C(CCC(=O)*)C(=O)O)CC1; Tyr(3-Cl) = N[C@@H](Cc1ccc(O)c(Cl)c1)C(=O)O; X1 = O=C([C@@H]1CC(O)CN1[*:1])[*:2]
# Key:
# Fibrin clots = experiment: PET in rabbit model of high risk plaque (plaque-rupture model); type: in vivo
# From the text: Mean SUV values, TBRvc and TBRm were compared across all rabbits after in vivo PET.
# [1] = molecular target: T1, fibrin in human carotid endarterectomy specimens (Homo sapiens, UniProt P02671+P02675+P02679); experiment: Ex vivo autoradiography of human carotid endarterectomy specimens; details: compared to non-binding probe ^68Ga-22; 12 patients; P<0.05
# T1 construct: discarded surgical specimens from asymptomatic patients who underwent elective carotid endarterectomy; from tissue; host or cells: human carotid endarterectomy specimens (cryosections or tissue pieces)
# T1 sequence (P02671 36-644 isoform P02671-2 limits assumed): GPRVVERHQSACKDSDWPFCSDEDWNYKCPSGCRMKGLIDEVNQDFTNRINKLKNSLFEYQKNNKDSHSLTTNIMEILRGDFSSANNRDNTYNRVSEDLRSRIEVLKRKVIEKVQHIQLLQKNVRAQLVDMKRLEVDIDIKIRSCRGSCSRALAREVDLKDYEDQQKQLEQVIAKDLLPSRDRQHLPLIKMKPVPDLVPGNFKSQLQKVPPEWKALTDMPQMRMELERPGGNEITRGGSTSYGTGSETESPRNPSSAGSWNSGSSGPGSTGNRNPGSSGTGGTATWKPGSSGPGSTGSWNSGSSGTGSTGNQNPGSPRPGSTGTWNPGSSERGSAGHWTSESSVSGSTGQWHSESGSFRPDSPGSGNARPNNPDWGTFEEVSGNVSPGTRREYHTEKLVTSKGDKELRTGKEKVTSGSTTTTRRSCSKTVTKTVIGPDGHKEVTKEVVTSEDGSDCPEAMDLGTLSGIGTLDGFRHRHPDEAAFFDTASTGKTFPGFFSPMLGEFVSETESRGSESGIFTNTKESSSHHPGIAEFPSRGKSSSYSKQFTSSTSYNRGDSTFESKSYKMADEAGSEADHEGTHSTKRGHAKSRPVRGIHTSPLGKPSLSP
# T1 sequence (P02675 45-491 limits assumed): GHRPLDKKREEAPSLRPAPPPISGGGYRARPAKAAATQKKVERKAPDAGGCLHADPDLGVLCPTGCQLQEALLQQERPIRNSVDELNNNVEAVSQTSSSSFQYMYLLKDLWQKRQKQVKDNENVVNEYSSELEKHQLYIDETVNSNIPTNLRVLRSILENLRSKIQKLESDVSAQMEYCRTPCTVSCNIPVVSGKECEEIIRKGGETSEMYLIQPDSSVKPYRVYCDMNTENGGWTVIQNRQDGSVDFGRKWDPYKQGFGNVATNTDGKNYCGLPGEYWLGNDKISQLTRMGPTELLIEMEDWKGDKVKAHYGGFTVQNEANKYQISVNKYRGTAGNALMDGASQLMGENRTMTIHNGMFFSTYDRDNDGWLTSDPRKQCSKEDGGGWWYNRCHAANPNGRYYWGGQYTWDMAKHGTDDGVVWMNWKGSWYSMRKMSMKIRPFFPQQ
# T1 sequence (P02679 27-437 isoform P02679-2 limits assumed): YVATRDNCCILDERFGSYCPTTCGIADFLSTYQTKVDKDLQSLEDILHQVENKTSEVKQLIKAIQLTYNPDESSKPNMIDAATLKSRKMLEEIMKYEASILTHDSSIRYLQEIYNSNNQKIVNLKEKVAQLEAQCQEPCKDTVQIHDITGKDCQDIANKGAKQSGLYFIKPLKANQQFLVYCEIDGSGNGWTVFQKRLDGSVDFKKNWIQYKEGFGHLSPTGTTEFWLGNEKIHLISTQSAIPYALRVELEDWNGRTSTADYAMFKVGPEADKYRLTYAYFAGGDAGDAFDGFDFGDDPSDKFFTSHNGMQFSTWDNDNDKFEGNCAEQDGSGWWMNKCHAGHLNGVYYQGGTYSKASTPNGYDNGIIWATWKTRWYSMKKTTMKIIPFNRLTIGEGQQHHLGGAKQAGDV
# Method: Twelve discarded surgical specimens from asymptomatic patients who underwent elective carotid endarterectomy at Massachusetts General Hospital were obtained and used in ex vivo studies described herein. Samples were processed for histology, autoradiography, and probe binding assay as described above (Examples 6 and 13).
# Discarded surgical specimens were embedded in optimal cutting temperature compound, snap-frozen, and stored at −80° C. before further analysis. Alternating consecutive cryosections were processed for histology and autoradiography; triplicate tissue samples with 50 μm gap in between were used for these experiments. The remaining tissue samples were processed for functional probe assay.
# For autoradiography, three 30 μm-thick sections were incubated with ^68Ga-20 or non-fibrin binding control probe ^68Ga-22 for 45 minutes on a lab shaker at room temperature. Autoradiography was performed after three washes of PBS. The exposure time was 2 minutes.
structure (smiles),measurement,setting,value
"CC[C@H](C)[C@H](NC(=O)[C@H](Cc1cnc[nH]1)NC(=O)[C@@H]1CSSC[C@H](NC(=O)[C@@H](CCC(=O)O)NC(=O)[C@H](Cc2ccc(O)cc2)NC(=O)CCC(C(=O)O)N2CCN(CC(=O)O)CCN(CC(=O)O)CC2)C(=O)N2CC(O)C[C@H]2C(=O)N[C@@H](Cc2ccc(O)c(Cl)c2)C(=O)NCC(=O)N[C@@H](CC(C)C)C(=O)N1)C(=O)N[C@H](CCC(N)=O)C(N)=O (stereo partly shown) [Compound ^68Ga-20, metal not drawn] ({NODAGA}-Y[dE]C[X1][Tyr(3-Cl)]GLCHI[dQ]-NH2; disulfide 3-8)",plaque rupture-to-control SUV ratios,Fibrin clots; across post injection imaging time points,higher plaque rupture-to-control SUV ratios were seen with longer post injection imaging time points
same,PET-MR uptake along the aorta,Fibrin clots; plaque rupture group vs control,Fibrin clots were seen as uptake spots along the aorta on the plaque rupture group
same,validation in rabbit model of high risk plaque,"Fibrin clots; plaque-rupture model, in vivo PET",successfully validated
same,"uptake, autoradiography",[1],variable but significantly increased; also recorded: significantly higher uptake
